Target: T1, IspE (4-diphosphocytidyl-2-c-methyl-d-erythritol kinase; Rv1011) (Mycobacterium tuberculosis, UniProt P9WKG7)
T1 sequence (P9WKG7 2-318): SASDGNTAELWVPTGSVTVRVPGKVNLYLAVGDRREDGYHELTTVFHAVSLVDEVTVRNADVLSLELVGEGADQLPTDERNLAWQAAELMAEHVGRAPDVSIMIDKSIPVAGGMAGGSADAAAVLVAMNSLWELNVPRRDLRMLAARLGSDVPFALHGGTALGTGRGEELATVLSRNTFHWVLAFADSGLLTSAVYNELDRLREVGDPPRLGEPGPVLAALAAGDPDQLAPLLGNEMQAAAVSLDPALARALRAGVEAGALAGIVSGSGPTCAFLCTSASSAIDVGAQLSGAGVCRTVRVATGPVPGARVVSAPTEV
Assay: ADP Quest HS coupled fluorescent kinase assay (resorufin) with Rv1011, ATP and CDP-ME
Format: biochemical

Cc1ccc([C@H]2c3c([nH]n(-c4ccccc4)c3=O)NC3=C[C@H](C)CC(=O)[C@H]32)cc1 [A1]
IC50: 15.6 µM
